“And” between values parts separate entries of the source, which are not always exact repeats. Equal entries are not always repeated. Inconclusive results and toxic doses are left out.
System: BDF1 mice, P388 leukemia ip, median survival T/C
Assay: NCI In Vivo Anticancer Drug Screen. Data for tumor model P388 Leukemia (intraperitoneal) in B6D2F1 (BDF1) mice
Details: endpoint: median survival time, higher = longer survival
Method in brief: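 Each value expresses how treatment altered survival: treated-mouse outcome over vehicle-mouse outcome, both groups bearing the transplanted tumour.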

[1] = dose: 50.0 mg/kg/injection, schedule: Q01DX009 (ip), vehicle: saline with Tween-80
[2] = dose: 100.0 mg/kg/injection, schedule: Q01DX009 (ip), vehicle: saline with Tween-80
[3] = dose: 200.0 mg/kg/injection, schedule: Q01DX009 (ip), vehicle: saline with Tween-80
[4] = dose: 100.0 mg/kg/injection, schedule: Q01DX009 (ip), vehicle: Klucel (hydroxypropylcellulose) (HPC)
[5] = dose: 100.0 mg/kg/injection, schedule: Q04DX003 (ip), vehicle: Klucel (hydroxypropylcellulose) (HPC)
[6] = dose: 200.0 mg/kg/injection, schedule: Q01DX009 (ip), vehicle: Klucel (hydroxypropylcellulose) (HPC)
[7] = dose: 200.0 mg/kg/injection, schedule: Q04DX003 (ip), vehicle: Klucel (hydroxypropylcellulose) (HPC)
[8] = dose: 400.0 mg/kg/injection, schedule: Q04DX003 (ip), vehicle: Klucel (hydroxypropylcellulose) (HPC)

## CC(=O)O[C@H]1C(=O)O[C@@H]2C[C@H]3C(C)=CC(=O)[C@@H](O)[C@]3(C)[C@H]3[C@@]4(O)OC[C@]32[C@@H]1[C@@H](C)[C@H]4O
dose: 0.13 mg/kg/injection, schedule: Q01DX010 (ip), vehicle: alcohol
  T/C: 227 % of control
dose: 0.2 mg/kg/injection, schedule: Q01DX010 (ip), vehicle: alcohol
  T/C: 100 % of control
dose: 0.4 mg/kg/injection, schedule: Q01DX010 (ip), vehicle: alcohol
  T/C: 150 % of control
dose: 0.5 mg/kg/injection, schedule: Q01DX009 (ip), vehicle: saline with Tween-80
  T/C: 120 % of control
dose: 0.6 mg/kg/injection, schedule: Q01DX010 (ip), vehicle: alcohol
  T/C: 166 % of control
dose: 0.75 mg/kg/injection, schedule: Q01DX009 (ip), vehicle: saline
  T/C: 120 % of control
dose: 0.75 mg/kg/injection, schedule: Q03HX008 (ip), vehicle: saline
  T/C: 110 % of control
dose: 0.75 mg/kg/injection, schedule: Q03HX016 (ip), vehicle: saline
  T/C: 120 % of control
dose: 1.0 mg/kg/injection, schedule: Q01DX009 (ip), vehicle: saline
  T/C: 100 % of control
dose: 1.0 mg/kg/injection, schedule: Q01DX010 (ip), vehicle: other
  T/C: 116 % of control
dose: 1.0 mg/kg/injection, schedule: Q01DX010 (ip), vehicle: saline
  T/C: 190 % of control
dose: 1.5 mg/kg/injection, schedule: Q01DX005 (ip), vehicle: saline
  T/C: 100 % of control
dose: 1.5 mg/kg/injection, schedule: Q03HX008 (ip), vehicle: saline
  T/C: 110 % of control
dose: 1.5 mg/kg/injection, schedule: Q03HX024 (ip), vehicle: saline
  T/C: 110 % of control
dose: 2.0 mg/kg/injection, schedule: Q01DX010 (ip), vehicle: alcohol
  T/C: 120 % of control
dose: 2.0 mg/kg/injection, schedule: Q01DX010 (ip), vehicle: other
  T/C: 120 % of control
dose: 2.0 mg/kg/injection, schedule: Q01DX010 (ip), vehicle: saline
  T/C: 190 % of control
dose: 3.0 mg/kg/injection, schedule: Q01DX005 (ip), vehicle: saline
  T/C: 120 % of control
dose: 4.0 mg/kg/injection, schedule: Q01DX010 (ip), vehicle: alcohol
  T/C: 120 % of control
dose: 4.0 mg/kg/injection, schedule: Q01DX010 (ip), vehicle: saline
  T/C: 190 % of control
dose: 6.0 mg/kg/injection, schedule: Q01DX005 (ip), vehicle: saline
  T/C: 100 % of control
dose: 6.0 mg/kg/injection, schedule: Q01DX009 (ip), vehicle: saline
  T/C: 90 % of control
dose: 6.0 mg/kg/injection, schedule: Q01DX010 (ip), vehicle: alcohol
  T/C: 213 % of control
dose: 6.0 mg/kg/injection, schedule: Q04DX003 (ip), vehicle: saline
  T/C: 95 % of control
dose: 6.0 mg/kg/injection, schedule: Q08DX002 (ip), vehicle: saline
  T/C: 100 % of control
dose: 8.0 mg/kg/injection, schedule: Q01DX009 (ip), vehicle: saline
  T/C: 116 % of control
dose: 8.0 mg/kg/injection, schedule: Q01DX010 (ip), vehicle: other
  T/C: 158 % of control
dose: 9.0 mg/kg/injection, schedule: Q01DX010 (ip), vehicle: alcohol
  T/C: 159 % of control
dose: 12.0 mg/kg/injection, schedule: Q01DX001 (ip), vehicle: saline
  T/C: 110 % of control
dose: 12.0 mg/kg/injection, schedule: Q01DX005 (ip), vehicle: saline
  T/C: 120 % of control
dose: 12.0 mg/kg/injection, schedule: Q08DX002 (ip), vehicle: saline
  T/C: 95 % of control
dose: 13.0 mg/kg/injection, schedule: Q01DX010 (ip), vehicle: alcohol
  T/C: 213 % of control
dose: 24.0 mg/kg/injection, schedule: Q04DX003 (ip), vehicle: saline
  T/C: 100 % of control
dose: 24.0 mg/kg/injection, schedule: Q08DX002 (ip), vehicle: saline
  T/C: 100 % of control
dose: 48.0 mg/kg/injection, schedule: Q04DX003 (ip), vehicle: saline
  T/C: 100 % of control
dose: 48.0 mg/kg/injection, schedule: Q08DX002 (ip), vehicle: saline
  T/C: 100 % of control
dose: 96.0 mg/kg/injection, schedule: Q01DX001 (ip), vehicle: saline
  T/C: 110 % of control
dose: 96.0 mg/kg/injection, schedule: Q08DX002 (ip), vehicle: saline
  T/C: 100 % of control
dose: 192.0 mg/kg/injection, schedule: Q01DX001 (ip), vehicle: saline
  T/C: 110 % of control
dose: 57.0 micrograms/kg/injection, schedule: Q01DX010 (ip), vehicle: alcohol
  T/C: 111 % of control
dose: 87.0 micrograms/kg/injection, schedule: Q01DX010 (ip), vehicle: alcohol
  T/C: 107 % of control

## C[N+](C)(C)Cc1ccccc1/C(=N\O)c1ccccc1
dose: 5.0 mg/kg/injection, schedule: Q01DX009 (ip), vehicle: saline
  T/C: 109 % of control
dose: 10.0 mg/kg/injection, schedule: Q01DX009 (ip), vehicle: saline
  T/C: 91 % of control

## COCCCNC1=C(C#N)C(=O)NC2(CCCC2)S1
[1]
  T/C: 90 % of control
[2]
  T/C: 90 % of control
[3]
  T/C: 104 % of control

## CCCCCCCCOP(=O)(N1CC1C)N1CC1C (centres undefined)
dose: 100.0 mg/kg/injection, schedule: Q04DX003 (ip), vehicle: saline
  T/C: 154 % of control

## CCC(=O)Nc1ccc(C)cc1C
[4]
  T/C: 104 % of control
[5]
  T/C: 104 % of control
[6]
  T/C: 100 % of control
[7]
  T/C: 90 % of control
dose: 400.0 mg/kg/injection, schedule: Q01DX009 (ip), vehicle: Klucel (hydroxypropylcellulose) (HPC)
  T/C: 95 % of control
[8]
  T/C: 90 % of control

## N=c1ccn2c(n1)OC1C(O)C(CO)OC12 (centres undefined)
dose: 39.0 mg/kg/injection, schedule: Q01DX008 (ip), vehicle: water
  T/C: 173 % of control
dose: 65.0 mg/kg/injection, schedule: Q01DX008 (ip), vehicle: water
  T/C: 99 % of control
dose: 108.0 mg/kg/injection, schedule: Q01DX008 (ip), vehicle: water
  T/C: 224 % of control
dose: 180.0 mg/kg/injection, schedule: Q01DX008 (ip), vehicle: water
  T/C: 207 % of control
dose: 300.0 mg/kg/injection, schedule: Q01DX008 (ip), vehicle: water
  T/C: 213 % of control
dose: 500.0 mg/kg/injection, schedule: Q01DX008 (ip), vehicle: water
  T/C: 225 % of control

## C=CCOC(=O)c1ccccc1N
[2]
  T/C: 118 % of control
dose: 100.0 mg/kg/injection, schedule: Q04DX003 (ip), vehicle: saline with Tween-80
  T/C: 110 % of control
[3]
  T/C: 118 % of control
dose: 200.0 mg/kg/injection, schedule: Q04DX003 (ip), vehicle: saline with Tween-80
  T/C: 115 % of control
dose: 400.0 mg/kg/injection, schedule: Q04DX003 (ip), vehicle: saline with Tween-80
  T/C: 110 % of control

## CC1=C(C)CC2C(=O)C=CC(=O)C2C1 (centres undefined)
dose: 12.5 mg/kg/injection, schedule: Q01DX009 (ip), vehicle: water
  T/C: 95 % of control
dose: 25.0 mg/kg/injection, schedule: Q01DX009 (ip), vehicle: water
  T/C: 90 % of control
dose: 25.0 mg/kg/injection, schedule: Q04DX003 (ip), vehicle: water
  T/C: 113 % of control
dose: 50.0 mg/kg/injection, schedule: Q01DX009 (ip), vehicle: water
  T/C: 93 % of control
dose: 50.0 mg/kg/injection, schedule: Q04DX003 (ip), vehicle: water
  T/C: 113 % of control
dose: 100.0 mg/kg/injection, schedule: Q01DX009 (ip), vehicle: water
  T/C: 100 % of control
dose: 100.0 mg/kg/injection, schedule: Q04DX003 (ip), vehicle: water
  T/C: 105 % of control and 112 % of control

## O=C(NNc1ccc([N+](=O)[O-])cc1)c1ccccc1
dose: 50.0 mg/kg/injection, schedule: Q01DX009 (ip), vehicle: Klucel (hydroxypropylcellulose) (HPC)
  T/C: 100 % of control
[4]
  T/C: 90 % of control
[5]
  T/C: 115 % of control
[6]
  T/C: 100 % of control
[7]
  T/C: 100 % of control
[8]
  T/C: 95 % of control

## CCOC(=O)/C(=C(/N)C1OC(COC(c2ccccc2)(c2ccccc2)c2ccccc2)C2OC(C)(C)OC12)C1CC(=O)N(C)C1=O (centres undefined)
[1]
  T/C: 99 % of control
[2]
  T/C: 90 % of control

Source: PubChem BioAssay AID328 (DTP/NCI, 2004)
